Measurements published in patent US20170096426A1 (published 2017).

`CCCCCn1c2ccccc2c2cc(C(=O)c3ccccc3)ccc21` gave a melting point of 116 to 117 °C.
